Experimental data reported in US6673827B1, “Methods of treating fungal infections with inhibitors of NAD synthetase enzyme” (priority 1999, dated 2004).
Values joined by “and” are separate entries in the source; they are usually repeats but may differ in a detail not shown here. Equal entries are not always repeated.

Tests used:
[1] = system: Candida tropicalis ATCC 28707; experiment: In vitro study of inhibition of growth and lethality against yeast (MIC/MLC susceptibility test), isolate B; type: cell-based; conditions: Candida tropicalis, 1st pair of lines, isolate assigned by line order
[2] = system: Cryptococcus neoformans DLB-1027594CNC; experiment: In vitro study of inhibition of growth and lethality against yeast (MIC/MLC susceptibility test), isolate G; type: cell-based; conditions: Cryptococcus neoformans, 1st pair of lines, isolate assigned by line order
Male CD-1 mice = experiment: In vivo toxicity: intraperitoneal (IP) dosage in mice resulting in 50% lethality (LD50); conditions: single IP dose, observed 14 days
[3] = system: Torulopsis glabrata ERH-BC9938274; experiment: In vitro study of inhibition of growth and lethality against yeast (MIC/MLC susceptibility test), isolate F; type: cell-based; conditions: Torulopsis glabrata, 1st pair of lines, isolate assigned by line order
[4] = system: Candida tropicalis (ATCC 750); experiment: Minimum Inhibitory Concentration (MIC) against yeast, broth dilution; type: cell-based; conditions: 37° C., 20 hours, mean of duplicate
[5] = target: T1, NAD synthetase (recombinant protein from B. subtilis; purified) (Bacillus subtilis, UniProt P08164); experiment: NAD synthetase enzyme inhibition assay (coupled enzymatic assay, HTS); type: biochemical; conditions: table of structures used in the yeast assay (Example 4)
T1 construct: made in house
Procedure: NAD Synthetase Enzyme Inhibition Assay-Determination of Test Compound Concentrations Providing 50% Inhibition ([…]) of the Maximum Enzyme Rate
The potential inhibitory activity of the synthetic compounds was determined by the use of a coupled enzymatic assay. The coupled assay involves two steps as summarized below. [drawing 98]
The measurement of inhibitory activities of the test compounds was facilitated by the use of a high through-put screening system (HTS system). The HTS system utilizes an integrated Sagian 2M ORCA robotic system coordinating the functions of a Beckman Biomek 2000 liquid handler and a Molecular Devices SpectraMax Plus spectrophotometer. The 2M ORCA robotic station is responsible for the movement of all hardware and the integration of multiple stations on the worksurface. The Biomek 2000 is programmed to perform all phases of liquid dispensing and mixing. The SpectraMax Plus spectrophotometer is equipped to monitor absorbance in a 96-well plate format.
The Biomek 2000 mixes these components utilizing a predefined mixing program. […] The reaction is monitored by measuring the increase in absorbance at 340 nm (NADH). The linear portion of the reaction is monitored for 180 sec. The initial velocity is determined using Softmax Pro, the software supplied with the Molecular Devices SpectrMax Plus spectrophotometer.
The test compounds were supplied as a stock solution with a concentration of 50 mM dissolved in 100% dimethyl sulfoxide (DMSO). An initial screen was conducted on all compounds using a 2 or 3 concentration screen. The 2 panel screen used concentrations of 0.2 mM and 0.1 mM for the compounds. The 3 panel screen used concentrations of 0.2 mM, 0.1 mM, and 0.05 mM. […] The IC50 values for each compound were determined graphically from a plot of % inhibition versus […].

[6] = system: Candida albicans KJP-000531594; experiment: In vitro study of inhibition of growth and lethality against yeast (MIC/MLC susceptibility test), isolate C; type: cell-based; conditions: Candida albicans, 1st pair of lines
[7] = system: Candida albicans LH-000664533; experiment: In vitro study of inhibition of growth and lethality against yeast (MIC/MLC susceptibility test), isolate D; type: cell-based; conditions: Candida albicans, 2nd pair of lines, isolate assigned by line order
[8] = system: Cryptococcus neoformans SLP-BC0012854; experiment: In vitro study of inhibition of growth and lethality against yeast (MIC/MLC susceptibility test), isolate H; type: cell-based; conditions: Cryptococcus neoformans, 2nd pair of lines, isolate assigned by line order
[9] = system: Candida tropicalis (ATCC 28707-amphotericin B-resistant); experiment: Minimum Inhibitory Concentration (MIC) against yeast, broth dilution; type: cell-based; conditions: 37° C., 20 hours, mean of duplicate
[10] = system: Torulopsis glabrata JHC-BC9951635; experiment: In vitro study of inhibition of growth and lethality against yeast (MIC/MLC susceptibility test), isolate E; type: cell-based; conditions: Torulopsis glabrata, 2nd pair of lines, isolate assigned by line order
[11] = system: Candida tropicalis ATCC 750; experiment: In vitro study of inhibition of growth and lethality against yeast (MIC/MLC susceptibility test), isolate A; type: cell-based; conditions: Candida tropicalis, 2nd pair of lines, isolate assigned by line order
[12] = system: Candida albicans (ATCC 10231); experiment: Minimum Inhibitory Concentration (MIC) against yeast, broth dilution; type: cell-based; conditions: 37° C., 20 hours, mean of duplicate

T1 sequence (P08164 whole entry): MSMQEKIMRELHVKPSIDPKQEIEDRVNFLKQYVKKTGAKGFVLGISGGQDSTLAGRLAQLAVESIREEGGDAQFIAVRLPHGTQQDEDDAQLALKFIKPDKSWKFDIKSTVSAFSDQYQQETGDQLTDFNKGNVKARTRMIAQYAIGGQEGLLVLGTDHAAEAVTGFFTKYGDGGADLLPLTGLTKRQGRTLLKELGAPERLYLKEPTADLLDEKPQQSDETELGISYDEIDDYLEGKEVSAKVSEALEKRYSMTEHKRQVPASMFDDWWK

## C[n+]1cccc(C(=O)OCCCCCCCCn2ccc3cc(OCc4ccccc4)ccc32)c1 [Compound 769]
[1]; read at 24 hr
  Minimum Inhibitory Conc. (MIC), 24 hr.: 0.25 µg/mL
[1]; read at 48 hr
  Minimum Inhibitory Conc. (MIC), 48 hr.: 0.5 µg/mL
[1]
  Minimum Lethal Conc. (MLC): 2 µg/mL
[2]; read at 48 hr
  Minimum Inhibitory Conc. (MIC), 48 hr.: 0.5 µg/mL
[2]; read at 72 hr
  Minimum Inhibitory Conc. (MIC), 72 hr.: 1 µg/mL
[2]
  Minimum Lethal Conc. (MLC): 2 µg/mL
Male CD-1 mice
  LD50: 43 mg/kg
[3]; read at 24 hr
  Minimum Inhibitory Conc. (MIC), 24 hr.: 1 µg/mL
[3]; read at 48 hr
  Minimum Inhibitory Conc. (MIC), 48 hr.: 2 µg/mL
[3]
  Minimum Lethal Conc. (MLC): 2 µg/mL
[4]
  MIC Candida tropicalis (ATCC 750): 0.098 µg/mL
[5]
  IC50 (μg/mL) for Inhibit. of NAD Synthetase: 20 µg/mL
[6]; read at 24 hr, isolate not given, assigned by line order and MLC of Table 4B
  Minimum Inhibitory Conc. (MIC), 24 hr.: 2 µg/mL and 1 µg/mL
[6]; read at 48 hr, isolate assigned by line order
  Minimum Inhibitory Conc. (MIC), 48 hr.: 2 µg/mL and 4 µg/mL
[6]; isolate assigned by line order
  Minimum Lethal Conc. (MLC): 8 µg/mL
[7]; read at 24 hr
  Minimum Inhibitory Conc. (MIC), 24 hr.: 1 µg/mL
[7]; read at 48 hr
  Minimum Inhibitory Conc. (MIC), 48 hr.: 2 µg/mL
[7]
  Minimum Lethal Conc. (MLC): 8 µg/mL
[8]; read at 48 hr
  Minimum Inhibitory Conc. (MIC), 48 hr.: 0.5 µg/mL and 1 µg/mL
[8]; read at 72 hr
  Minimum Inhibitory Conc. (MIC), 72 hr.: 0.5 µg/mL and 1 µg/mL
[8]
  Minimum Lethal Conc. (MLC): 2 µg/mL
[9]
  MIC Candida tropicalis (ATCC 28707): 0.098 µg/mL
[10]; read at 24 hr
  Minimum Inhibitory Conc. (MIC), 24 hr.: 0.5 µg/mL
[10]; read at 48 hr
  Minimum Inhibitory Conc. (MIC), 48 hr.: 1 µg/mL
[10]
  Minimum Lethal Conc. (MLC): 1 µg/mL
[11]; read at 24 hr
  Minimum Inhibitory Conc. (MIC), 24 hr.: 1 µg/mL
[11]; read at 48 hr
  Minimum Inhibitory Conc. (MIC), 48 hr.: 1 µg/mL
[11]
  Minimum Lethal Conc. (MLC): 2 µg/mL
[12]
  MIC Candida albicans (ATCC 10231): 4.7 µg/mL
